For 22 compounds, EC50 and selectivity ratio results are on record in ChEMBL document CHEMBL2203037, “Synthesis and Anti-influenza A Virus Activity of 2,2-Dialkylamantadines and Related Compounds” (ACS Med Chem Lett, 2012).

In series [1] the test system is Influenza B virus. The experiment in a line: Antiviral activity against amantidine and rimantadine-resistant Influenza B virus (B/HK/5/72) infected in MDCK cells assessed as virus-induced cytopathic effect by MTS assay. Type of series: functional, cell-based. The note with it: B/Hong Kong/05/1972, MDCK. Background: Protection from cytopathic effect is a common read-out in antiviral testing.

The subject of series [2] is Influenza A virus. Description: Antiviral activity against amantadine-resistant Influenza A virus (A/PR/8/34 (H1N1)) infected in MDCK cells assessed as virus-induced cytopathic effect by MTS assay. Type of series: functional, organism-based, A/Puerto Rico/8/1934(H1N1).
For series [3], the system named is Influenza B virus. Description: Antiviral activity against amantidine and rimantadine-resistant Influenza B virus (B/HK/5/72) infected in MDCK cells assessed as virus-induced cytopathic effect measured 3 days post infection by microscopic analysis. Type of series: functional, cell-based. The note with it: B/Hong Kong/05/1972, MDCK, 72 h.
Series [4] relates to Influenza A virus. Description: Antiviral activity against amantadine-resistant Influenza A virus (A/PR/8/34 (H1N1)) infected in MDCK cells assessed as virus-induced cytopathic effect measured 3 days post infection by microscopic analysis. Type of series: functional, organism-based. The note with it: A/Puerto Rico/8/1934(H1N1), 72 h.
Series [5] in a line: Selectivity index, ratio of CC50 for dog MDCK cells to EC50 for amantadine-resistant Influenza A virus (A/PR/8/34 (H1N1)). Type of series: toxicity, cell-based. The note with it: read-out: Ratio CC50/EC50.
Where [6] appears, read: Influenza A virus, A/Puerto Rico/8/1934(H1N1), MDCK.

The EC50 is the midpoint of the concentration-response curve. As for `CN(C)C12CC3CC(CC(C3)C1(C)C)C2`, the concentration for a half-maximal effect (EC50) with Influenza B virus [1] was more than 100 µM; with Influenza A virus [2] (setting [6]), 4.8 µM; in the series with Influenza B virus [3], more than 100 µM; with Influenza A virus [4], 4 µM.

On to `NC12CC3CC(CC(C3)C1)C2` [AMANTADINE], for which the values for the EC50 with Influenza B virus [1], in the series on Influenza B virus [3] and in the series on Influenza A virus [4] were more than 100 µM, more than 100 µM and 53 µM, respectively.

Consider `CC1(C)C2CC3CC(C2)CC1(NCc1ccccc1)C3`, for which the EC50 with Influenza B virus [1], in the series with Influenza A virus [2] (setting [6]), with Influenza B virus [3] and in the series on Influenza A virus [4] was more than 100 µM in each case.

For the compound `NC(=O)c1ncn([C@@H]2O[C@H](CO)[C@@H](O)[C@H]2O)n1` [RIBAVIRIN], the 50% effective concentration (EC50) in the series on Influenza B virus [1] turned out to be 8.1 µM; in the series on Influenza A virus [2] (mdck) it was 8.2 µM; in the series on Influenza B virus [3], 8 µM.

For `CCC1(CC)C2CC3CC(C2)CC1(NC)C3`, the values for the EC50 in the series on Influenza B virus [1], in the series on Influenza B virus [3] and in the series on Influenza A virus [4] were more than 100 µM, more than 100 µM and 4 µM, respectively.

Turning to `CCCC1(CCC)C2CC3CC(C2)CC1(N)C3`, the EC50 with Influenza B virus [1], with Influenza A virus [2] (setting [6]), in the series on Influenza B virus [3] and in the series with Influenza A virus [4] was more than 100 µM in each case.

`CC(=O)N[C@H]1[C@H]([C@H](O)[C@H](O)CO)OC(C(=O)O)=C[C@@H]1NC(=N)N` [ZANAMIVIR]: the EC50 in the series with Influenza A virus [4] is 6 µM.

For `CCOC(=O)C1=C[C@@H](OC(CC)CC)[C@H](NC(C)=O)[C@@H](N)C1` [OSELTAMIVIR], the EC50 with Influenza A virus [4] was determined as 21 µM.

Turning to `NC12CC3CC(CC(C3)C13CCCCC3)C2`, the EC50 in the series with Influenza B virus [1] was more than 100 µM; in the series on Influenza A virus [2] (setting [6]), 0.9 µM; in the series with Influenza B virus [3], more than 100 µM; in the series on Influenza A virus [4] it was 1.1 µM.

For the compound `CCC1(CC)C2CC3CC(C2)CC1(N(C)C)C3`, the EC50 with Influenza B virus [1] is more than 100 µM; in the series on Influenza A virus [2] (setting [6]), 9.6 µM; with Influenza B virus [3] it was more than 100 µM; with Influenza A virus [4], 0.7 µM.

For `CC1(C)C2CC3CC(C2)CC1(N)C3`, the EC50 is more than 100 µM in the series with Influenza B virus [1], 10 µM in the series on Influenza A virus [2] (setting [6]), more than 100 µM in the series with Influenza B virus [3] and 15 µM in the series on Influenza A virus [4].

As for `CCNC12CC3CC(CC(C3)C1(C)C)C2`, the EC50 with Influenza B virus [1], with Influenza A virus [2] (setting [6]), with Influenza B virus [3] and in the series on Influenza A virus [4] was more than 100 µM throughout.

`CC(C)C1C2CC3CC(C2)CC1(N(C)C)C3` (centres undefined): the EC50 in the series on Influenza B virus [1] was more than 50 µM; with Influenza A virus [2] (setting [6]) it was 6 µM; with Influenza B virus [3], more than 100 µM; in the series with Influenza A virus [4], 5.1 µM.

In the case of `CCCC1(CCC)C2CC3CC(C2)CC1(N(C)C)C3`, the EC50 is more than 100 µM in the series on Influenza B virus [1], 6.7 µM in the series on Influenza A virus [2] (setting [6]), more than 100 µM in the series on Influenza B virus [3] and 6 µM in the series on Influenza A virus [4].

`CNC12CC3CC(CC(C3)C1(C)C)C2`: the EC50 in the series on Influenza B virus [1] is more than 100 µM; with Influenza A virus [2] (setting [6]), 10 µM; with Influenza B virus [3], more than 100 µM; in the series on Influenza A virus [4] it was 6 µM.

For `CN(Cc1ccccc1)C12CC3CC(CC(C3)C1(C)C)C2`, the EC50 in the series with Influenza B virus [1], with Influenza A virus [2] (setting [6]), in the series with Influenza B virus [3] and in the series with Influenza A virus [4] was more than 100 µM throughout.

`CC(C)C1C2CC3CC(C2)CC1(N)C3` (centres undefined): the concentration for a half-maximal effect (EC50) in the series with Influenza B virus [1] is more than 100 µM; in the series with Influenza A virus [2] (setting [6]), 1.2 µM; with Influenza B virus [3] it was more than 100 µM; in the series with Influenza A virus [4], 5.8 µM.

Consider `CC1(C)C2CC3CC(C2)CC1(N1CCCCC1)C3`, for which the EC50 in the series with Influenza B virus [1], in the series on Influenza A virus [2] (setting [6]), in the series with Influenza B virus [3] and in the series with Influenza A virus [4] was more than 100 µM throughout.

Consider `CC(N)C12CC3CC(CC(C3)C1)C2` (centres undefined) [RIMANTADINE], for which the 50% effective concentration (EC50) with Influenza B virus [1] was more than 100 µM; with Influenza B virus [3], more than 100 µM; with Influenza A virus [4], 63 µM.

As for `CN(C)C12CC3(C)CC(CC3(C)C1)C2(C)C`, the EC50 in the series with Influenza B virus [1] is more than 100 µM; with Influenza A virus [2] (setting [6]), 5.7 µM; in the series with Influenza B virus [3], more than 100 µM; with Influenza A virus [4], 5.8 µM.

As for `CCC1(CC)C2CC3CC(C2)CC1(N)C3`, the EC50 with Influenza B virus [1] was more than 100 µM; in the series with Influenza A virus [2] (setting [6]), 1.7 µM; with Influenza B virus [3], more than 100 µM; in the series on Influenza A virus [4] it was 1.2 µM. In series [5], the selectivity ratio was more than 50.

For the compound `CC12CC3CC1(C)CC(N)(C2)C3(C)C`, the EC50 was more than 100 µM with Influenza B virus [1], 4.5 µM in the series with Influenza A virus [2] (setting [6]), more than 100 µM in the series with Influenza B virus [3] and 4.6 µM with Influenza A virus [4].
